Experimental findings from PubChem BioAssay AID248 (DTP/NCI, 2004) are described below.

Where “and” joins values, the source holds several entries; their conditions need not be identical. Equal values may be shown once. Inconclusive results and toxic doses are left out.

This assay deals with L1210 leukemia ip in BDF1 mice, survival T/C. Kind of assay: NCI In Vivo Anticancer Drug Screen. Data for tumor model L1210 Leukemia (intraperitoneal) in B6D2F1 (BDF1) mice. The settings on record: endpoint: mean survival time, higher = longer survival. In outline: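 Read-out is survival time, reported as the treated-group measurement over the vehicle-control measurement.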

Setting [1] is: dose: 25.0 mg/kg/injection, schedule: Q01DX009 (ip), vehicle: saline with Tween-80.
The mark [2] stands for this setting: dose: 25.0 mg/kg/injection, schedule: Q04DX003 (ip), vehicle: saline.
The mark [3] stands for this setting: dose: 50.0 mg/kg/injection, schedule: Q01DX009 (ip), vehicle: saline with Tween-80.
Setting [4] is: dose: 50.0 mg/kg/injection, schedule: Q04DX003 (ip), vehicle: saline.
[5] abbreviates: dose: 100.0 mg/kg/injection, schedule: Q01DX009 (ip), vehicle: Klucel (hydroxypropylcellulose) (HPC).
Where [6] appears, read: dose: 200.0 mg/kg/injection, schedule: Q01DX009 (ip), vehicle: Klucel (hydroxypropylcellulose) (HPC).
Setting [7] is: dose: 100.0 mg/kg/injection, schedule: Q04DX003 (ip), vehicle: saline.
[8] abbreviates: dose: 100.0 mg/kg/injection, schedule: Q01DX009 (ip), vehicle: saline with Tween-80.
The mark [9] stands for this setting: dose: 200.0 mg/kg/injection, schedule: Q01DX009 (ip), vehicle: saline with Tween-80.
Setting [10] is: dose: 100.0 mg/kg/injection, schedule: Q04DX003 (ip), vehicle: saline with Tween-80.
[11] abbreviates: dose: 400.0 mg/kg/injection, schedule: Q04DX003 (ip), vehicle: saline with Tween-80.
[12] abbreviates: dose: 400.0 mg/kg/injection, schedule: Q01DX009 (ip), vehicle: Klucel (hydroxypropylcellulose) (HPC).

As for `C[N+]([O-])(CCC#N)CC(=O)O` (stereo not drawn), the T/C was 97 % of control (dose: 100.0 mg/kg/injection, schedule: Q01DX001 (ip), vehicle: saline) and 101 % of control (dose: 200.0 mg/kg/injection, schedule: Q01DX001 (ip), vehicle: saline).
As for `CCn1cnc2c(C(F)(F)F)nc(N)nc21`, the T/C reads like this: (dose: 12.5 mg/kg/injection, schedule: Q01DX001 (ip), vehicle: acetone) 94 % of control; (dose: 12.5 mg/kg/injection, schedule: Q01DX009 (ip), vehicle: saline with Tween-80) 96 % of control; (dose: 12.5 mg/kg/injection, schedule: Q04DX003 (ip), vehicle: saline) 103 % of control; (dose: 25.0 mg/kg/injection, schedule: Q01DX001 (ip), vehicle: acetone) 94 % of control; under setting [1], 101 % of control; under setting [2], 87 % of control. Besides, the T/C (dose: 50.0 mg/kg/injection, schedule: Q01DX001 (ip), vehicle: acetone) is 101 % of control; the T/C under setting [3] is 95 % of control; the T/C under setting [4] was 97 % of control.
In the case of `C/C=C/C(=O)Nc1ccc(CC)cc1`, the T/C reads like this: under setting [5], 95 % of control; under setting [6], 92 % of control.
With `CC(=O)/C=C\c1ccc([N+](=O)[O-])o1`, the T/C reads like this: (dose: 100.0 mg/kg/injection, schedule: Q04DX002 (ip), vehicle: Klucel (hydroxypropylcellulose) (HPC)) 115 % of control; (dose: 200.0 mg/kg/injection, schedule: Q04DX002 (ip), vehicle: Klucel (hydroxypropylcellulose) (HPC)) 89 % of control.
With `CCNC(C)C`, the T/C runs as follows: (dose: 25.0 mg/kg/injection, schedule: Q01DX009 (ip), vehicle: saline) 98 % of control; under setting [2], 92 % of control; (dose: 50.0 mg/kg/injection, schedule: Q01DX009 (ip), vehicle: saline) 93 % of control; under setting [4], 97 % of control; (dose: 100.0 mg/kg/injection, schedule: Q01DX009 (ip), vehicle: saline) 98 % of control; under setting [7], 95 % of control and 107 % of control.
For `C=CNC(=O)Oc1ccccc1`, the T/C is 96 % of control (dose: 100.0 mg/kg/injection, schedule: Q01DX001 (ip), vehicle: other); 100 % of control (dose: 200.0 mg/kg/injection, schedule: Q01DX001 (ip), vehicle: other); 91 % of control (dose: 400.0 mg/kg/injection, schedule: Q01DX001 (ip), vehicle: other).
`CC(C)CCC(C)C1CCC2C3CC([N+](=O)[O-])=C4CC(OC(=O)c5ccccc5)CCC4(C)C3CCC12C` (stereo not drawn): the T/C is 103 % of control under setting [8]; 90 % of control under setting [9]; 90 % of control (dose: 400.0 mg/kg/injection, schedule: Q01DX009 (ip), vehicle: saline with Tween-80).
As to `CNC(=O)Nc1ccncc1`, the T/C is, setting by setting: under setting [10], 96 % of control; (dose: 200.0 mg/kg/injection, schedule: Q04DX003 (ip), vehicle: saline with Tween-80) 102 % of control; under setting [11], 91 % of control.
For `O=C(Nc1ccc(C2=NCCN2)cc1)c1ccc(NC(=O)c2ccc(C3=NCCN3)cc2)cc1`, the T/C by setting is: (dose: 1.88 mg/kg/injection, schedule: Q01DX Z (ip), vehicle: saline) 101 % of control; (dose: 3.75 mg/kg/injection, schedule: Q01DX Z (ip), vehicle: saline) 106 % of control; (dose: 7.5 mg/kg/injection, schedule: Q01DX Z (ip), vehicle: saline) 117 % of control; (dose: 15.0 mg/kg/injection, schedule: Q01DX009 (ip), vehicle: saline) 119 % of control; (dose: 30.0 mg/kg/injection, schedule: Q01DX009 (ip), vehicle: saline) 190 % of control; (dose: 30.0 mg/kg/injection, schedule: Q01DX Z (ip), vehicle: carboxymethylcellulose (CMC)) 203 % of control. The T/C (dose: 50.0 mg/kg/injection, schedule: Q01DX007 (oral), vehicle: carboxymethylcellulose (CMC)) is 103 % of control; the T/C (dose: 60.0 mg/kg/injection, schedule: Q01DX009 (ip), vehicle: saline) was 197 % of control and 232 % of control; the T/C (dose: 62.5 mg/kg/injection, schedule: Q## X010 (oral), vehicle: saline) is 101 % of control; the T/C (dose: 100.0 mg/kg/injection, schedule: Q01DX007 (oral), vehicle: carboxymethylcellulose (CMC)) is 100 % of control; the T/C (dose: 120.0 mg/kg/injection, schedule: Q01DX009 (ip), vehicle: saline) was 117 % of control; the T/C (dose: 125.0 mg/kg/injection, schedule: Q## X010 (oral), vehicle: saline) is 102 % of control. In addition, the T/C (dose: 200.0 mg/kg/injection, schedule: Q01DX007 (oral), vehicle: carboxymethylcellulose (CMC)) was 108 % of control; the T/C (dose: 400.0 mg/kg/injection, schedule: Q01DX007 (oral), vehicle: carboxymethylcellulose (CMC)) was 94 % of control; the T/C (dose: 500.0 mg/kg/injection, schedule: Q## X010 (oral), vehicle: saline) is 101 % of control; the T/C (dose: 800.0 mg/kg/injection, schedule: Q01DX007 (oral), vehicle: carboxymethylcellulose (CMC)) is 101 % of control.
As for `CCCCOP(=O)(Cc1ccccc1)Oc1ccccc1` (stereo not drawn), the T/C runs as follows: under setting [5], 95 % of control; under setting [6], 97 % of control; under setting [12], 105 % of control.
On to `CCOC(=O)CC(C)C(Br)(C(=O)OCC)C(=O)OCC` (stereo not drawn), for which the T/C (dose: 25.0 mg/kg/injection, schedule: Q01DX009 (ip), vehicle: water) was 109 % of control; the T/C (dose: 50.0 mg/kg/injection, schedule: Q01DX009 (ip), vehicle: water) was 111 % of control; the T/C (dose: 100.0 mg/kg/injection, schedule: Q01DX009 (ip), vehicle: water) is 100 % of control; the T/C (dose: 200.0 mg/kg/injection, schedule: Q01DX009 (ip), vehicle: water) is 96 % of control.
In the case of `CCCCCCCCCCCC[N+]1(CCCCCCCCCCCC)CCCC(C)C1` (stereo not drawn), the T/C is, setting by setting: (dose: 3.0 mg/kg/injection, schedule: Q04DX002 (ip), vehicle: Klucel (hydroxypropylcellulose) (HPC)) 109 % of control; (dose: 6.0 mg/kg/injection, schedule: Q04DX002 (ip), vehicle: Klucel (hydroxypropylcellulose) (HPC)) 87 % of control.
As for `CSc1ncnc2[nH]ncc12`, the T/C runs as follows: under setting [1], 108 % of control; (dose: 25.0 mg/kg/injection, schedule: Q04DX003 (ip), vehicle: saline with Tween-80) 105 % of control; under setting [3], 102 % of control; (dose: 50.0 mg/kg/injection, schedule: Q04DX003 (ip), vehicle: saline with Tween-80) 103 % of control; under setting [10], 96 % of control and 106 % of control.
Take `Cc1cccc(Cl)c1NC(=O)Oc1ccc2c(C)cc(=O)oc2c1`: the T/C by setting is: under setting [5], 102 % of control; under setting [6], 100 % of control; under setting [12], 87 % of control.
As for `COC(C)C/C=N/Nc1nnc(N/N=C/CC(C)OC)c2ccccc12` (stereo not drawn), the T/C reads like this: (dose: 5.0 mg/kg/injection, schedule: Q01DX001 (ip), vehicle: carboxymethylcellulose (CMC)) 96 % of control; (dose: 10.0 mg/kg/injection, schedule: Q01DX001 (ip), vehicle: carboxymethylcellulose (CMC)) 93 % of control.
As to `CC(C)C1=CC2=CCC3C(C)(C#N)CCCC3(C)C2CC1CC#N` (stereo not drawn), the T/C was 88 % of control under setting [10] and 92 % of control under setting [11].
With `CCCCCC(/C=C/C1C=CC(=O)C1C/C=C/CCCC(=O)OC)OC(C)=O` (stereo not drawn), the T/C was 100 % of control under setting [8] and 97 % of control under setting [9].
On to `COc1ccc2c(=O)cc(-c3ccccc3)[nH]c2c1`, for which the T/C runs as follows: under setting [4], 100 % of control; (dose: 100.0 mg/kg/injection, schedule: Q01DX009 (ip), vehicle: other) 122 % of control; under setting [7], 106 % of control; (dose: 200.0 mg/kg/injection, schedule: Q01DX009 (ip), vehicle: other) 123 % of control; (dose: 200.0 mg/kg/injection, schedule: Q04DX003 (ip), vehicle: saline) 101 % of control; (dose: 400.0 mg/kg/injection, schedule: Q04DX003 (ip), vehicle: saline) 104 % of control.
`CCC[CH2][Sn]([CH2]CCC)=[N]S(=O)(=O)c1ccc(Cl)c(C)c1`: the T/C is 98 % of control (dose: 5.0 mg/kg/injection, schedule: Q01DX001 (ip), vehicle: saline); 98 % of control (dose: 10.0 mg/kg/injection, schedule: Q01DX001 (ip), vehicle: saline); 109 % of control (dose: 20.0 mg/kg/injection, schedule: Q01DX001 (ip), vehicle: saline).
